In patent US9302999B2, “Substituted triazoles as herbicides” (E. I. DU PONT DE NEMOURS AND COMPANY, priority 2012, dated 2016):

Key:
Assay type in all cases: in vivo
[1] = tested on: velvetleaf (Abutilon theophrasti); assay: Test A pre-/postemergence: velvetleaf; details: for Velvetleaf plant response rating: Postemergence; for Plant response rating, Velvetleaf: Preemergence
Outline: (§1)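 Injury is scored visually on a scale where 0 means no effect and 100 complete control, comparing treated with untreated plants after approximately ten greenhouse days. Both preemergence and postemergence applications are made at the same time.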

[2] = tested on: ducksalad (Heteranthera limosa); assay: Test C flooded paddy test: ducksalad; details: scale 0 to 100 (0 no effect, 100 complete control)
Outline: (§2)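 2-leaf stage plants; pots flooded 3 cm above soil; compound applied into paddy water, depth maintained. Greenhouse 13–15 d. Visual rating vs controls, 0–100 (0 = no effect, 100 = complete control); dash = no result.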

[3] = tested on: pigweed (Amaranthus retroflexus); assay: Test A pre-/postemergence: pigweed; details: for Pigweed plant response rating: Postemergence; for Plant response rating, Pigweed: Preemergence
Outline: as §1

[4] = tested on: foxtail, giant (giant foxtail, Setaria faberii); assay: Test A pre-/postemergence: foxtail, giant; details: for Foxtail, Giant plant response rating: Postemergence; for Plant response rating, Foxtail, Giant: Preemergence
Outline: as §1

[5] = tested on: crabgrass, large (large crabgrass, Digitaria sanguinalis); assay: Test A pre-/postemergence: crabgrass, large; details: for Crabgrass, Large plant response rating: Postemergence; for Plant response rating, Crabgrass, Large: Preemergence
Outline: as §1

[6] = tested on: barnyardgrass (Echinochloa crus-galli); assay: Test C flooded paddy test: barnyardgrass; details: scale 0 to 100 (0 no effect, 100 complete control)
Outline: as §2

corn (Zea mays) = assay: Test A pre-/postemergence: corn; details: for Corn plant response rating: Postemergence; for Plant response rating, Corn: Preemergence
Outline: as §1

[7] = tested on: barnyardgrass (Echinochloa crus-galli); assay: Test A pre-/postemergence: barnyardgrass; details: for Barnyardgrass plant response rating: Postemergence; for Plant response rating, Barnyardgrass: Preemergence
Outline: as §1

rice (Oryza sativa) = assay: Test C flooded paddy test: rice; details: scale 0 to 100 (0 no effect, 100 complete control)
Outline: as §2

[8] = tested on: morningglory (Ipomoea spp.); assay: Test A pre-/postemergence: morningglory; details: for Morningglory plant response rating: Postemergence; for Plant response rating, Morningglory: Preemergence
Outline: as §1

[9] = tested on: wheat (Triticum aestivum); assay: Test A pre-/postemergence: wheat; details: for Wheat plant response rating: Postemergence; for Plant response rating, Wheat: Preemergence
Outline: as §1

[10] = tested on: sedge, umbrella (small-flower umbrella sedge, Cyperus difformis); assay: Test C flooded paddy test: sedge, umbrella; details: scale 0 to 100 (0 no effect, 100 complete control)
Outline: as §2

[11] = 125 g ai/ha, 0 to 100 scale, 0 is no effect, 100 is complete control
[12] = 500 g ai/ha, visual rating on 0 to 100 scale (0 no effect, 100 complete control), approximately ten days
[13] = 125 g ai/ha, 0 to 100 scale (0 no effect, 100 complete control)
[14] = 500 g ai/ha, 0 to 100 scale, 0 is no effect, 100 is complete control
[15] = Flood (flooded paddy test), 62 g ai/ha, visual rating after 13 to 15 days
[16] = Flood (flooded paddy test), 125 g ai/ha, visual rating after 13 to 15 days
[17] = Flood (flooded paddy test), 250 g ai/ha, visual rating after 13 to 15 days

Q: Which results are given for `Cc1nn(-c2ccc(F)cc2)nc1Oc1ccnc(OCC(F)(F)F)c1` [Compound 71]?
A: Velvetleaf plant response rating [1, 11]: 0; Velvetleaf plant response rating [1, 12]: 10; Plant response rating, Velvetleaf [1, 13]: 0; Plant response rating, Velvetleaf [1, 14]: 0; Plant response rating, Ducksalad [2, 15]: 0; Plant response rating, Ducksalad [2, 16]: 0; Plant response rating, Ducksalad [2, 17]: 0; Plant response rating, Ducksalad ([2]; Flood, 31 g ai/ha): 0; Pigweed plant response rating [3, 11]: 10; Pigweed plant response rating [3, 12]: 40; Plant response rating, Pigweed [3, 13]: 0; Plant response rating, Pigweed [3, 14]: 0; Foxtail, Giant plant response rating [4, 11]: 10; Foxtail, Giant plant response rating [4, 12]: 10; Plant response rating, Foxtail, Giant [4, 13]: 0; Plant response rating, Foxtail, Giant [4, 14]: 0; Crabgrass, Large plant response rating [5, 11]: 10; Crabgrass, Large plant response rating [5, 12]: 10; Plant response rating, Crabgrass, Large [5, 13]: 0; Plant response rating, Crabgrass, Large [5, 14]: 10; Plant response rating, Barnyardgrass [6, 15]: 0; Plant response rating, Barnyardgrass [6, 16]: 0; Plant response rating, Barnyardgrass [6, 17]: 0; Plant response rating, Barnyardgrass ([6]; Flood, 31 g ai/ha): 0; Corn plant response rating (corn (Zea mays); [11]): 0; Corn plant response rating (corn (Zea mays); [12]): 10; Plant response rating, Corn (corn (Zea mays); [13]): 0; Plant response rating, Corn (corn (Zea mays); [14]): 0; Barnyardgrass plant response rating [7, 11]: 0; Barnyardgrass plant response rating [7, 12]: 10; Plant response rating, Barnyardgrass [7, 13]: 0; Plant response rating, Barnyardgrass [7, 14]: 0; Plant response rating, Rice (rice (Oryza sativa); [15]): 0; Plant response rating, Rice (rice (Oryza sativa); [16]): 0; Plant response rating, Rice (rice (Oryza sativa); [17]): 0; Plant response rating, Rice (rice (Oryza sativa); Flood, 31 g ai/ha): 0; Morningglory plant response rating [8, 11]: 10; Morningglory plant response rating [8, 12]: 10; Plant response rating, Morningglory [8, 13]: 0; Plant response rating, Morningglory [8, 14]: 0; Wheat plant response rating [9, 11]: 0; Wheat plant response rating [9, 12]: 0; Plant response rating, Wheat [9, 13]: 0; Plant response rating, Wheat [9, 14]: 0; Plant response rating, Sedge, Umbrella [10, 15]: 0; Plant response rating, Sedge, Umbrella [10, 16]: 0; Plant response rating, Sedge, Umbrella [10, 17]: 0; Plant response rating, Sedge, Umbrella ([10]; Flood, 31 g ai/ha): 0

Q: Which “Velvetleaf plant response rating” value [1, 11] does the source give for `Cc1nn(-c2ccc(C(F)(F)F)nc2)nc1C(=O)c1cccc(C(F)(F)F)c1` [Compound 73] here?
A: The value was 20.

Q: What about the “Velvetleaf plant response rating” value [1, 12] of the same molecule?
A: Its value is 40.

Q: What about the “Plant response rating, Velvetleaf” value [1, 13] of the same molecule?
A: The value was 0.

Q: What about the “Plant response rating, Velvetleaf” value [1, 14] of the same molecule?
A: The value was 10.

Q: What about the “Plant response rating, Ducksalad” value [2, 15] of the same molecule?
A: The value was 0.

Q: And the “Plant response rating, Ducksalad” value [2, 16]?
A: The value was 0.

Q: What about the “Plant response rating, Ducksalad” value [2, 17] of the same molecule?
A: Its value is 85.

Q: What about the “Plant response rating, Ducksalad” value ([2]; Flood, 31 g ai/ha) of the same molecule?
A: Its value is 0.

Q: And the “Pigweed plant response rating” value [3, 11]?
A: The value was 70.

Q: And the “Pigweed plant response rating” value [3, 12]?
A: The value was 100.

Q: What about the “Plant response rating, Pigweed” value [3, 13] of the same molecule?
A: The value was 30.

Q: And the “Plant response rating, Pigweed” value [3, 14]?
A: Its value is 100.

Q: What about the “Foxtail, Giant plant response rating” value [4, 11] of the same molecule?
A: Its value is 10.

Q: And the “Foxtail, Giant plant response rating” value [4, 12]?
A: The value was 40.

Q: What about the “Plant response rating, Foxtail, Giant” value [4, 13] of the same molecule?
A: Its value is 60.

Q: And the “Plant response rating, Foxtail, Giant” value [4, 14]?
A: The value was 90.

Q: And the “Crabgrass, Large plant response rating” value [5, 11]?
A: Its value is 20.

Q: What about the “Crabgrass, Large plant response rating” value [5, 12] of the same molecule?
A: Its value is 60.

Q: What about the “Plant response rating, Crabgrass, Large” value [5, 13] of the same molecule?
A: The value was 50.

Q: And the “Plant response rating, Crabgrass, Large” value [5, 14]?
A: Its value is 90.

Q: What about the “Plant response rating, Barnyardgrass” value [6, 15] of the same molecule?
A: The value was 0.

Q: And the “Plant response rating, Barnyardgrass” value [6, 16]?
A: Its value is 0.

Q: And the “Plant response rating, Barnyardgrass” value [6, 17]?
A: Its value is 0.

Q: What about the “Plant response rating, Barnyardgrass” value ([6]; Flood, 31 g ai/ha) of the same molecule?
A: The value was 0.

Q: And the “Corn plant response rating” value (corn (Zea mays); [11])?
A: The value was 10.

Q: What about the “Corn plant response rating” value (corn (Zea mays); [12]) of the same molecule?
A: Its value is 20.

Q: What about the “Plant response rating, Corn” value (corn (Zea mays); [13]) of the same molecule?
A: Its value is 0.

Q: What about the “Plant response rating, Corn” value (corn (Zea mays); [14]) of the same molecule?
A: Its value is 0.

Q: What about the “Barnyardgrass plant response rating” value [7, 11] of the same molecule?
A: Its value is 10.

Q: What about the “Barnyardgrass plant response rating” value [7, 12] of the same molecule?
A: The value was 30.

Q: What about the “Plant response rating, Barnyardgrass” value [7, 13] of the same molecule?
A: The value was 0.

Q: And the “Plant response rating, Barnyardgrass” value [7, 14]?
A: The value was 40.

Q: What about the “Plant response rating, Rice” value (rice (Oryza sativa); [15]) of the same molecule?
A: Its value is 0.

Q: What about the “Plant response rating, Rice” value (rice (Oryza sativa); [16]) of the same molecule?
A: Its value is 0.

Q: What about the “Plant response rating, Rice” value (rice (Oryza sativa); [17]) of the same molecule?
A: Its value is 0.

Q: What about the “Plant response rating, Rice” value (rice (Oryza sativa); Flood, 31 g ai/ha) of the same molecule?
A: Its value is 0.

Q: What about the “Morningglory plant response rating” value [8, 11] of the same molecule?
A: The value was 20.

Q: And the “Morningglory plant response rating” value [8, 12]?
A: Its value is 70.

Q: And the “Plant response rating, Morningglory” value [8, 13]?
A: Its value is 0.

Q: What about the “Plant response rating, Morningglory” value [8, 14] of the same molecule?
A: Its value is 10.

Q: What about the “Wheat plant response rating” value [9, 11] of the same molecule?
A: The value was 10.

Q: And the “Wheat plant response rating” value [9, 12]?
A: Its value is 20.

Q: What about the “Plant response rating, Wheat” value [9, 13] of the same molecule?
A: Its value is 0.

Q: And the “Plant response rating, Wheat” value [9, 14]?
A: The value was 10.

Q: What about the “Plant response rating, Sedge, Umbrella” value [10, 15] of the same molecule?
A: The value was 0.

Q: What about the “Plant response rating, Sedge, Umbrella” value [10, 16] of the same molecule?
A: The value was 0.

Q: What about the “Plant response rating, Sedge, Umbrella” value [10, 17] of the same molecule?
A: Its value is 0.

Q: And the “Plant response rating, Sedge, Umbrella” value ([10]; Flood, 31 g ai/ha)?
A: The value was 0.
